In patent US7179825B2, “Retinoic acid mimetic anilides” (Janssen Pharmaceutica N.V., priority 1997, dated 2007):
pIC50: −log10 of the molar value.

How the values were obtained:
[1] = tested on: metabolism of retinoic acid in human breast cancer cells; test: Inhibition of retinoic acid (RA) metabolism (Example C.1); type: cell-based; settings: MCF-7 human breast cancer cells, 3H-RA as substrate, concentration needed to reduce the amount of metabolites to 50% of the control
How it was run: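 Test compound (in 1% DMSO) added at several concentrations to MCF-7 cell suspensions fed ³H-RA, after RA induction of metabolism one day earlier. Scintillation counting of the separated polar metabolite fraction; IC50 = concentration giving 50% of control metabolite level.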

Ovariectomized rats = test: Vaginal keratinization test on ovariectomized rats (Example C.2); type: in vivo; settings: estradiol undecylate induced keratinization, per os once daily on days 1-3, active dose = 50% of rats show complete suppression; for minimal effective dose: Rattus norvegicus, po, read-out: LAD (lowest active dose)
How it was run: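 Value is the lowest oral dose (mg/kg) at which half of tested rats show complete suppression of estradiol undecylate-induced vaginal keratinization by histology. Ovariectomized rats received 100 μg/100 g estradiol undecylate s.c., then compound or PEG 200 vehicle p.o. daily for three days; sacrifice one day later.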

Compound	pIC50 [1]	pIC50 ([1]; MCF7)	LAD (lowest active dose) (Ovariectomized rats) [mg/kg]	minimal effective dose (Ovariectomized rats) [mg/kg]
CCC(CC)C(c1ccc(NC(=O)Cc2ccc(O)cc2)cc1)n1ccnc1 (racemic) [Compound 111]	8.99		>2.50	
CCOc1ccc(CC(=O)Nc2ccc(C(C(CC)CC)n3ccnc3)cc2)cc1Cl (racemic) [Compound 118]	8.65		2.50	
CCC(CC)C(c1ccc(NC(=O)Cc2ccc(OCc3ccccn3)cc2)cc1)n1ccnc1 (racemic) [Compound 121]	9.04		>2.50	
CCC(CC)C(c1ccc(NC(=O)Cc2cc(C)ccc2OC)cc1)n1ccnc1 (racemic) [Compound 122]	8.62		>2.50	
CCC(CC)C(c1ccc(NC(=O)Cc2ccc(OC)c(C)c2)cc1)n1ccnc1 (racemic) [Compound 123]	10.61		2.50	
CCOc1ccc(CC(=O)Nc2ccc(C(C(CC)CC)n3ccnc3)cc2)cc1C (racemic) [Compound 125]	9.71		2.50	
CCC(CC)C(c1ccc(NC(=O)Cc2ccc(OC)cc2OC)cc1)n1ccnc1 (racemic) [Compound 126]	> 11.00		2.50	
C/C(=C\c1ccc(F)cc1)C(=O)Nc1ccc(C(C(C)C)n2cncn2)cc1 (racemic) [Compound 157]	7.07		>10.00	
CC(Cc1ccccc1)C(=O)Nc1ccc(C(C(C)C)n2ccnc2)cc1 (racemic) [Compound 164, (±)-N-[4-[1-(1H-imidazol-1-yl)-2-methylpropyl]phenyl]-α-methylbenzenepropanamide]		8.09		20
CC(C)C(c1ccc(NC(=O)c2cc3ccccc3o2)cc1)n1ccnc1 (racemic) [Compound 167]	8.38		10.00	
CC(C)C(c1ccc(NC(=O)c2cnccn2)cc1)n1ccnc1 (racemic) [Compound 170]	7.91		10.00	
CC(C)C(c1ccc(NC(=O)c2ccsc2)cc1)n1ccnc1 (racemic) [Compound 173]	8.29		10.00	
C/C(C(=O)Nc1ccc(C(C(C)C)n2ccnc2)cc1)=C(/C)c1ccccc1 (racemic) [Compound 176]	7.73		>10.00	
CC(C)C(c1ccc(NC(=O)c2ccc3ccccc3c2)cc1)n1ccnc1 (racemic) [Compound 179]	7.43		>10.00	
CC(C)C(c1ccc(NC(=O)C2CCCO2)cc1)n1ccnc1 (racemic) [Compound 181]	7.85		10.00	
CC(C)C(c1ccc(NC(=O)c2ccc3nnn(C)c3c2)cc1)n1ccnc1 (racemic) [Compound 184]	8.29		>10.00	
CC(C)C(c1ccc(NC(=O)C2CCCC2)cc1)n1ccnc1 (racemic) [Compound 192]	8.48		>10.00	
CC(C)C(c1ccc(NC(=O)c2ccncc2)cc1)n1ccnc1 (racemic) [Compound 194]	8.15		10.00	
CC(C)C(c1ccc(NC(=O)C2(C)CCCCC2)cc1)n1ccnc1 (racemic) [Compound 201]	8.45		>10.00	
CC(C)C(c1ccc(NC(=O)c2ccc3c(c2)CCC(=O)N3)cc1)n1ccnc1 (racemic) [Compound 205]	7.93		>10.00	
CC(C)C(c1ccc(NC(=O)c2ccccn2)cc1)n1ccnc1 (racemic) [Compound 208]	8.19		>10.00	
CC(C)C(=O)Nc1ccc(C(C(C)C)n2ccnc2)cc1 (racemic) [Compound 209]	8.08		5.00	
CC(C)C(c1ccc(NC(=O)CSCc2ccccc2)cc1)n1ccnc1 (racemic) [Compound 210]	7.54		20.00	
CC(C)C(c1ccc(NC(=O)CNc2ccccc2)cc1)n1ccnc1 (racemic) [Compound 213]	8.68		20.00	
CC(C)C(c1ccc(NC(=O)c2cnc3ccccc3n2)cc1)n1ccnc1 (racemic) [Compound 216]	7.93		20.00	
CCOC(=O)CCCC(=O)Nc1ccc(C(C(C)C)n2ccnc2)cc1 (racemic) [Compound 219, (±)-ethyl 5-[[4-[1-(1H-imidazol-1-yl)-2-methylpropyl]phenyl]amino]-5-oxopentanoate]		8.49		20
CC(C)C(c1ccc(NC(=O)c2ccc(Br)o2)cc1)n1ccnc1 (racemic) [Compound 220]	8.83		20.00	

Now from value to compound, other results behind:

pIC50 [1]	pIC50 ([1]; MCF7)	Compound	LAD (lowest active dose) (Ovariectomized rats) [mg/kg]	minimal effective dose (Ovariectomized rats) [mg/kg]
9.49		CCC(CC)C(c1ccc(NC(=O)Cc2cccc(O)c2)cc1)n1ccnc1.O=C(O)C(=O)O (racemic) [Compound 109]	2.50	
9.02		CCC(CC)C(c1ccc(NC(=O)Cc2ccc(C)c(OC)c2)cc1)n1ccnc1 (racemic) [Compound 110]	>2.50	
9.00		CCC(CC)C(c1ccc(NC(=O)Cc2ccc(C)c(C)c2)cc1)n1ccnc1 (racemic) [Compound 112]	2.50	
9.07		CCC(CC)C(c1ccc(NC(=O)Cc2ccc(Cl)cc2OC)cc1)n1ccnc1 (racemic) [Compound 113]	>2.50	
8.09		CCC(CC)C(c1ccc(NC(=O)Cc2cccc(OC)c2OCc2ccccc2)cc1)n1ccnc1 (racemic) [Compound 115]	>2.50	
9.17		CCC(CC)C(c1ccc(NC(=O)Cc2ccc(OC)c(Cl)c2)cc1)n1ccnc1 (racemic) [Compound 116]	2.50	
9.59		CCC(CC)C(c1ccc(NC(=O)Cc2ccc(O)c(Cl)c2)cc1)n1ccnc1 (racemic) [Compound 117]	>2.50	
	8.38	C/C(=C\c1ccccc1)C(=O)Nc1ccc(C(C(C)C)n2cncn2)cc1 (racemic) [Compound 154, (±)-(E)-2-methyl-N-[4-[2-methyl-1-(1H-1,2,4-triazol-1-yl)propyl]phenyl]-3-phenyl-2-propenamide]		5
7.30		CC(C)C(c1ccc(NC(=O)/C=C/c2ccccc2)cc1)n1cncn1 (racemic) [Compound 155]	>10.00	
7.51		CC(=Cc1cccc(Cl)c1)C(=O)Nc1ccc(C(C(C)C)n2cncn2)cc1 (racemic) [Compound 156]	>10.00	
7.06		CC(C)C(c1ccc(NC(=O)C(F)=Cc2ccccc2)cc1)n1cncn1 (racemic) [Compound 160]	10.00	
8.63		CCC(=O)Nc1ccc(C(C(C)C)n2ccnc2)cc1 (racemic) [Compound 163]	20.00	
8.76		CC(C)C(c1ccc(NC(=O)c2ccccc2)cc1)n1ccnc1 (racemic) [Compound 166]	5.00	
8.63		CC(C)C(c1ccc(NC(=O)c2cc3ccccc3s2)cc1)n1ccnc1 (racemic) [Compound 168]	10.00	
9.27		CC(C)C(c1ccc(NC(=O)c2ccco2)cc1)n1ccnc1 (racemic) [Compound 169]	10.00	
8.47		CC(C)C(c1ccc(NC(=O)c2ccoc2)cc1)n1ccnc1 (racemic) [Compound 172]	10.00	
8.80		CC(C)C(c1ccc(NC(=O)C2CCCCC2)cc1)n1ccnc1 (racemic) [Compound 174]	10.00	
7.40		CC(C)C(c1ccc(NC(=O)C2CCOC2)cc1)n1ccnc1 (racemic) [Compound 185]	10.00	
< 7.00		CC(C)C(c1ccc(NC(=O)c2csc(-c3ccccc3)n2)cc1)n1ccnc1 (racemic) [Compound 186]	>10.00	
< 7.00		CC(C)C(c1ccc(NC(=O)C(C)(c2ccccc2)c2ccccc2)cc1)n1ccnc1 (racemic) [Compound 189]	>10.00	
7.92		CC(C)C(c1ccc(NC(=O)C2CCCCC2)cc1)n1ccnc1 (racemic) [Compound 193]	>10.00	
7.65		CC(C)C(c1ccc(NC(=O)c2cccnc2)cc1)n1ccnc1 (racemic) [Compound 196]	>10.00	
8.74		CC(C)C(c1ccc(NC(=O)C2CCCCC2C)cc1)n1ccnc1 (racemic) [Compound 202]	>10.00	
7.60		C/C(C(=O)Nc1ccc(C(C(C)C)n2ccnc2)cc1)=C(/c1ccccc1)c1ccco1 (racemic) [Compound 207]	10.00	
7.44		CC(C)C(c1ccc(NC(=O)c2ccc3ccccc3n2)cc1)n1ccnc1 (racemic) [Compound 215]	20.00	
8.48		CC(C)C(c1ccc(NC(=O)C(C)(C)Oc2ccc(Cl)cc2)cc1)n1ccnc1 (racemic) [Compound 222]	20.00	
